Measured values reported in US20090130165A1, “MIF Inhibitors” (Cortical Pty Ltd, priority 2005, published 2009).
Values after ≈ are worked out from the molar mass of the structure shown.

Assays:
[1] = system: LPS-induced IL-6 production in RAW264.7 mouse macrophage cell line; test: Inhibition of LPS-induced production of IL-6 in RAW264.7 macrophages; type: cell-based; conditions: 50 uM compound, 100 ng/ml LPS 4 hr, RAW264.7 cells, relative to LPS+DMSO control
Protocol: MIF is an important factor in the innate immune response to toxins such as the bacterial endotoxin lipopolysaccharide (LPS). […] A compound with the ability to inhibit the biological activity of MIF would therefore inhibit the activation of cytokine production by macrophages in response to LPS. The RAW264.7 mouse macrophage cell line was propagated in DMEM/10% foetal calf serum (FCS) at 37° C. in 5% CO2. 24 hr prior to assay cells were seeded in 96-well tissue culture plates. Cells were allowed to adhere for 4 hr prior to transfer to DMEM/0.5% FCS for 18 hr. Cells were then treated with 50 uM compound in DMSO for 30 min prior to stimulation for 4 hr with 100 ng/ml LPS. Cell culture supernatants were then collected from each well and assayed for IL-6 levels by ELISA (R&D Systems) according to the manufacturer's instructions.

[2] = biological target: T1, Recombinant human MIF protein (Homo sapiens, UniProt P14174); test: Inhibition of MIF tautisomerase activity (L-dopachrome); type: biochemical; conditions: mean±standard deviation of 2-4 experiments; for inhibition at 50 µM: 50 uM compound; for inhibition at 100 µM: 100 uM compound
T1 sequence (P14174 2-115 limits assumed): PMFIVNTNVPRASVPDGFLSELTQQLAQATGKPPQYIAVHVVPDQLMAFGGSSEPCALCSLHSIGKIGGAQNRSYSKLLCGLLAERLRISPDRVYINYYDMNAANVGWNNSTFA
Protocol: MIF protein has the ability in vitro to catalyze the tautisomerization of dopachrome^(15).
Recombinant human MIF protein was pre-incubated with compounds as indicated prior to the addition of L-dopachrome substrate. Tautomerase activity was determined by measurement of die decrease in absorbance at 475 nm after 2 min. […]

[3] = Lower limits of aqueous solubility by nephelometry; type: physicochemical; conditions: phosphate-buffered saline with 0.005% (v/v) P20 and 5% DMSO, aqueous with cosolvent or surfactant or cyclodextrin, kinetic from dmso stock, 0.005% (v/v) P20, 5% DMSO, read-out: Solubility Lower Limit Range
Protocol: Lower limits of aqueous compound solubility were determined in a nepholometer in phosphate-buffered saline containing 0.005% (v/v) P20 and a final concentration of 5% DMSO. Briefly, compounds were initially dissolved in DMSO as a 10 mM stock solution and diluted to 1 mM and 0.5 mM working solutions with neat DMSO. The compounds were then titrated in DMSO and a constant volume of DMSO stock added to filtered PBS/P20 solution so that the final DMSO concentration was 5%. The solubility was then determined in clear, flat-bottom 96-well plates using the nephelometer and reported as the concentration range at which the compound begins to precipitate from solution.

Which inhibition at 50 µM [1] does the source give for `O=C1Cc2cc(C(=O)CSCCCCCCO)c(Cl)cc2N1` [Compound 11, 6-chloro-5-(((6-hydroxyhexyl)thio)acetyl)-1,3-dihydro-2H-indol-2-one] here?
Its inhibition at 50 µM is 48 ± 24%.

Which inhibition at 50 µM [2] does the source give for `CCCCSCC(=O)c1cc2sc(=O)[nH]c2cc1Cl` [Compound 29, 6-((butylthio)acetyl)-5-chloro-1,3-benzothiazol-2(3H)-one] here?
The inhibition at 50 µM was 24 ± 1%.

What about the inhibition at 100 µM [2] of the same compound?
Its inhibition at 100 µM is 42 ± 9%.

And the melting point?
Its melting point is 102.5 to 115 °C.

For `CCCCSCC(=O)c1cc2c(cc1Cl)n(C)c(=O)n2C` [Compound 27, 5-((butylthio)acetyl)-6-chloro-1,3-dimethyl-1,3-dihydro-2H-benzimidazol-2-one], which inhibition at 50 µM [2] is on record?
Its inhibition at 50 µM is 28 ± 17%.

And the inhibition at 100 µM [2]?
The inhibition at 100 µM was 44 ± 12%.

What does the source list for `Cn1c(=O)n(C)c2cc(C(=O)CSCCC(=O)O)ccc21` [Compound 23, 3-((2-(1,3-dimethyl-2-oxo-2,3-dihydro-1H-benzimidazol-5-yl)-2-oxoethyl)thio) propanoic acid]?
inhibition at 50 µM [2]: 0%; inhibition at 100 µM [2]: 3 ± 2%; melting point: 174 to 176 °C

For `Cn1c(=O)n(C)c2cc(C(=O)CSCCC(=O)O)c(Cl)cc21` [Compound 28, 3-((2-(6-chloro-1,3-dimethyl-2-oxo-2,3-dihydro-1H-benzimidazol-5-yl)-2-oxoethyl)thio)propanoic acid], which inhibition at 50 µM [2] is on record?
Its inhibition at 50 µM is 12 ± 6%.

And the inhibition at 100 µM [2]?
Its inhibition at 100 µM is 27 ± 6%.

What about the melting point of the same compound?
The melting point was 148 to 150 °C.

Which inhibition at 50 µM [1] does the source give for `O=C(CSCCCCCCO)c1ccc2[nH]c(=O)[nH]c2c1` [Compound 10, 5-(((6-hydroxyhexyl)thio)acetyl)-1,3-dihydro-2H-benzimidazol-2-one] here?
Its inhibition at 50 µM is 25%.

And the melting point?
The melting point was 180 to 181 °C.

Which inhibition at 50 µM [2] does the source give for `CCCCSCC(=O)c1cc2[nH]c(=O)[nH]c2cc1Cl` [Compound 25, 5-((butylthio)acetyl)-6-chloro-1,3-dihydro-2H-benzimidazol-2-one] here?
Its inhibition at 50 µM is 4 ± 3%.

What about the inhibition at 100 µM [2] of the same compound?
The inhibition at 100 µM was 12 ± 4%.

And the melting point?
Its melting point is 199 to 201 °C.

With `CCCCSCC(=O)c1ccc2[nH]c(=O)[nH]c2c1` [Compound 22, 5-((butylthio)acetyl)-1,3-dihydro-2H-benzimidazol-2-one] as the compound, how does the inhibition at 50 µM [2] read?
The inhibition at 50 µM was 4 ± 6%.

What about the inhibition at 100 µM [2] of the same compound?
The inhibition at 100 µM was 4 ± 7%.

And the melting point?
Its melting point is 211 to 213 °C.

For `COC(=O)CCSCC(=O)c1ccc2c(c1)CC(=O)N2` [Compound 1, methyl 3-((2-oxo-2-(2-oxo-2,3-dihydro-1H-indol-5-yl)ethyl)thio)propanoate], which inhibition at 50 µM [1] is on record?
The inhibition at 50 µM was 13 ± 23%.

And the solubility [3]?
Its solubility is 18 to 63 µg/mL (≈ 61.4 to 215 µM).

And the melting point?
The melting point was 106 to 108 °C.

With `O=C(O)CCSCC(=O)c1cc2[nH]c(=O)[nH]c2cc1Cl` [Compound 26, 3-((2-(6-chloro-2-oxo-2,3-dihydro-1H-benzimidazol-5-yl)-2-oxoethyl)thio)propanoic acid] as the compound, how does the inhibition at 50 µM [2] read?
Its inhibition at 50 µM is 2 ± 3%.

What about the inhibition at 100 µM [2] of the same compound?
The inhibition at 100 µM was 4 ± 6%.

With `CCCCSCC(=O)c1ccc2c(c1)CC(=O)N2` [Compound 21, 5-((Butylthio)acetyl)-1,3-dihydro-2H-indol-2-one] as the compound, how does the inhibition at 50 µM [1] read?
Its inhibition at 50 µM is 41 ± 54%.

For `COC(=O)CSCC(=O)c1ccc2[nH]c(=O)[nH]c2c1` [Compound 5, methyl ((2-oxo-2-(2-oxo-2,3-dihydro-1H-benzimidazol-5-yl)ethyl)thio)acetate], which melting point is on record?
The melting point was 177 to 178.5 °C.

With `CCCCSCC(=O)c1ccc2[nH]c(=O)oc2c1` [Compound 16, 6-((Butylthio)acetyl)-1,3-benzoxazol-2(3H)-one] as the compound, how does the inhibition at 50 µM [1] read?
Its inhibition at 50 µM is 12 ± 63%.

What does the source list for `CCCCSCC(=O)c1cc2sc(=O)n(C)c2cc1Cl` [Compound 31, 6-((butylthio)acetyl)-5-chloro-3-methyl-1,3-benzothiazol-2(3H)-one]?
inhibition at 50 µM [2]: 2 ± 3%; inhibition at 100 µM [2]: 8 ± 8%

Which inhibition at 50 µM [2] does the source give for `O=C(O)CCSCC(=O)c1cc2sc(=O)[nH]c2cc1Cl` [Compound 30, 3-((2-(5-chloro-2-oxo-2,3-dihydro-1,3-benzothiazol-6-yl)-2-oxoethyl)thio)propanoic acid] here?
Its inhibition at 50 µM is 12 ± 11%.

And the inhibition at 100 µM [2]?
The inhibition at 100 µM was 27 ± 16%.

What about the melting point of the same compound?
Its melting point is 195 to 197 °C.

With `Cn1c(=O)sc2cc(C(=O)CSCCC(=O)O)c(Cl)cc21` [Compound 32, 3-((2-(5-chloro-3-methyl-2-oxo-2,3-dihydro-1,3-benzothiazol-6-yl)-2-oxoethyl)thio)propanoic acid] as the compound, how does the inhibition at 50 µM [2] read?
The inhibition at 50 µM was 4 ± 1%.

What about the inhibition at 100 µM [2] of the same compound?
Its inhibition at 100 µM is 11 ± 4%.

What about the melting point of the same compound?
Its melting point is 120 to 121 °C.

Which solubility [3] does the source give for `O=C(O)CCSCC(=O)c1ccc2[nH]c(=O)oc2c1` [Compound 14, 3-((2-Oxo-2-(2-oxo-2,3-dihydro-1,3-benzoxazol-6-yl)ethyl)thio)propanoic acid] here?
Its solubility is greater than 140 µg/mL.

Which inhibition at 50 µM [1] does the source give for `O=C(O)CCSCC(=O)c1ccc2[nH]c(=O)sc2c1` [Compound 18, 3-((2-Oxo-2-(2-oxo-23-dihydro-1,3-benzothiazol-6-yl)ethyl)thio)propanoic acid] here?
The inhibition at 50 µM was 49 ± 34%.

With `CCCCSCC(=O)c1cc2c(cc1Cl)NC(=O)C2` [Compound 20, 5-((Butylthio)acetyl)-6-chloro-1,3-dihydro-2H-indol-2-one] as the compound, how does the inhibition at 50 µM [1] read?
Its inhibition at 50 µM is 59 ± 11%.

For `O=C1Cc2cc(C(=O)CSCCCCCCO)ccc2N1` [Compound 9, 5-(((6-hydroxyhexyl)thio)acetyl)-1,3-dihydro-2H-indol-2-one], which melting point is on record?
Its melting point is 105 to 108 °C.

For `CC(=O)OCCCCCCSCC(=O)c1ccc2c(c1)CC(=O)N2` [Compound 8, 6-((2-oxo-2-(2-oxo-2,3-dihydro-1H-indol-5-yl)ethyl)thio)hexyl acetate], which inhibition at 50 µM [1] is on record?
Its inhibition at 50 µM is 42 ± 11%.

What about the melting point of the same compound?
The melting point was 86 to 87 °C.

For `CCCCSCC(=O)c1ccc2c(c1)n(C)c(=O)n2C` [Compound 24, 5-((butylthio)acetyl)-1,3-dimethyl-1,3-dihydro-2H-benzimidazol-2-one], which inhibition at 50 µM [2] is on record?
Its inhibition at 50 µM is 15 ± 6%.

And the inhibition at 100 µM [2]?
The inhibition at 100 µM was 34 ± 12%.

And the melting point?
Its melting point is 80 to 81 °C.

With `COC(=O)CCSCC(=O)c1cc2c(cc1Cl)NC(=O)C2` [Compound 12, methyl 3-((2-(6-chloro-2-oxo-2,3-dihydro-1H-indol-5-yl)-2-oxoethyl)thio)propanoate] as the compound, how does the inhibition at 50 µM [1] read?
The inhibition at 50 µM was 60%.

And the melting point?
Its melting point is 75 to 77 °C.

For `O=C(O)CSCC(=O)c1ccc2[nH]c(=O)[nH]c2c1` [Compound 6, ((2-oxo-2-(2-oxo-2,3-dihydro-1H-benzimidazol-5-yl)ethyl)thio)acetic acid], which solubility [3] is on record?
The solubility was 67 to 250 µg/mL (≈ 252 to 939 µM).

What about the melting point of the same compound?
Its melting point is 230 °C (dec.).

With `O=C(O)CSCC(=O)c1ccc2[nH]c(=O)oc2c1` [Compound 17, ((2-Oxo-2-(2-oxo-2,3-dihydro-1,3-benzoxazol-6-yl)ethyl)thio)acetic acid] as the compound, how does the inhibition at 50 µM [1] read?
Its inhibition at 50 µM is 8 ± 90%.

Which melting point does the source give for `O=C(CSCCO)c1ccc2[nH]c(=O)[nH]c2c1` [Compound 7, 5-(((2-hydroxyethyl)thio)acetyl)-1,3-dihydro-2H-benzimidazol-2-one] here?
The melting point was 320 °C (dec.).
